In one series the test system is P53. As to the kind of experiment: RT-PCR gene expression in MCF-7 cells. The class given is cell-based. To be noted: MCF-7, IC50, 48 h, normalized to β-actin, untreated = 1. As to the method: (§1) Furthermore, to explore the apoptotic pathway, gene expression of proapoptotic genes (P53, Bax, Caspapses-3,8,9) and antiapoptotic gene (Bcl-2) was evaluated using routine RT-PCR in the untreated and treated MCF-7 cells. Ct values were calculated to determine the relative genes expression in all samples by normalization to β-actin (housekeeping gene).

The subject of the next series is Bcl-2. In words: RT-PCR gene expression in MCF-7 cells. The conditions noted are these: MCF-7, IC50, 48 h, normalized to β-actin, untreated = 1. The class given is cell-based. As to the method: as §1
The test system of a further series is Casp-9. In words: RT-PCR gene expression in MCF-7 cells. The class given is cell-based. The conditions noted are these: MCF-7, IC50, 48 h, normalized to β-actin, untreated = 1. As to the method:
as §1

The test system of the next series is Casp-8. As to the kind of experiment: RT-PCR gene expression in MCF-7 cells. The class given is cell-based. The conditions noted are these: MCF-7, IC50, 48 h, normalized to β-actin, untreated = 1. As to the method: as §1
A further series has as its system Casp-3. As to the kind of experiment: RT-PCR gene expression in MCF-7 cells. The class given is cell-based. To be noted: MCF-7, IC50, 48 h, normalized to β-actin, untreated = 1. As to the method:
as §1

In the next series the test system is Bax. In words: RT-PCR gene expression in MCF-7 cells. The class given is cell-based. The conditions noted are these: MCF-7, IC50, 48 h, normalized to β-actin, untreated = 1. As to the method:
as §1

A further series addresses T1, EGFR Kinase (Homo sapiens, UniProt P00533).
T1 construct: purchased BPS Bioscience 40321
As to the kind of experiment: EGFR Kinase Assay Kit (BPS Bioscience). The conditions noted are these: mean ± SD of three replicates, five concentrations. The class given is biochemical. As to the method:
(§2) Compounds’ autophosphorylation percentage inhibition was computed according to the following equation: […] , then IC50 values were calculated using GraphPad prism software.

The format of series [1] is in vivo. The text has this:
In vivo experiments for lethal dose (LD50), experimental design, tumor mass, blood parameters, histopathological examinations were accomplished as previously described. After inoculating the tumor cells, masses of the solid tumor started to appear ten days later. […]. Animals from each group were sacrificed, and their blood was drawn to measure hemoglobin (Hb), red blood cell (RBC), white blood cell (WBC), and liver enzymes (ALT, AST, albumin, and total protein) levels.

Series [2] relates to MCF-7 cells. In words: DNA content flow cytometry cell cycle analysis. The class given is cell-based. The conditions noted are these: MCF-7 after treatment.
In another series the test system is MCF-7 cancer cells. In words: MTT cytotoxicity assay on MCF-7. The class given is cell-based. The conditions noted are these: for LogIC50 MCF-7: Figure 4 curve fit, cell viability vs. log [conc. µM]; for IC50: MTT assay, 48 h, n = 3, NA: Non-Active, read-out: IC50 ± SD, MCF-7. As to the method:
(§3) Both breast cancer (MCF-7) and normal breast (MCF-10A) cells were purchased from National Research Institute, Egypt, and maintained in complete media of RPMI-1640 medium L-Glutamine (Lonza Verviers SPRL, Belgium, cat#12-604F). Cells were incubated following standard tissue culture work. Cell viability was measured 48 h later, utilizing MTT colorimetric assay (Promega, Madison, WI, USA). Absorbance was consequently assessed (at 570 nm) using an ELISA microplate reader (BIO-RAD, model iMark, Tokyo, Japan). Using GraphPad Prism 7, the IC50 values were determined, and the viability at each concentration was determined in comparison to the control.

Series [3] relates to MCF-7 cells (Xenograft model). The class given is in vivo, mice. To be noted: 10 mg/kg BW, IP. From the text:
In vivo experiments for lethal dose (LD50), experimental design, tumor mass, blood parameters, histopathological examinations were accomplished as previously described. After inoculating the tumor cells, masses of the solid tumor started to appear ten days later. […] Animals from each group were sacrificed, and their blood was drawn to measure hemoglobin (Hb), red blood cell (RBC), white blood cell (WBC), and liver enzymes (ALT, AST, albumin, and total protein) levels.

In series [4] the test system is MCF-7 cells. In words: Annexin V/PI staining flow cytometry. The class given is cell-based. The conditions noted are these: MCF-7, treated at IC50, 48 h; for late apoptosis: AV+/PI+; for early apoptosis: AV+/PI−; for apoptotic cell death (total): control 0.68%. As to the method:
MCF-7 breast cancer cells were seeded into 6-well culture plates (3–5 × 10^5 cells/well) and incubated for 24 h. […] After that, the collection of the media supernatants and the cells was performed before undergoing rinsing with ice-cold PBS. The cells were suspended in 100 µL of annexin-binding buffer solution “25 mM CaCl2, 1.4 M NaCl, and 0.1 M Hepes/NaOH, pH 7.4” and incubated with “Annexin V-FITC solution (1:100) and propidium iodide (PI)” at a concentration equal 10 µg/mL in the dark for 30 min. Stained cells were then obtained by a Cytoflex FACS machine, and data analysis was performed using cytExpert software.

For series [5], the system named is MCF-10A normal breast cells. As to the kind of experiment: MTT cytotoxicity assay on MCF-10A. The conditions noted are these: Homo sapiens, 48 h, n = 3, read-out: IC50 ± SD, MCF-10A. The class given is cell-based. As to the method:
as §3

A further series concerns the target T2, HER2 Kinase (Homo sapiens, UniProt P04626).
T2 construct: purchased BPS Bioscience 40721
As to the kind of experiment: HER2 Kinase Assay Kit (BPS Bioscience). To be noted: mean ± SD of three replicates, five concentrations. The class given is biochemical. As to the method: as §2

A further series deals with mutant EGFR (L858R). On the set-up: method as in PMID 35427766. The conditions noted are these: allosteric inhibitor; cited from earlier work.
The subject of the next series is EGFR. The arrangement: method as in PMID 33872924. The conditions noted are these: reported phenylthiazole derivative; cited from earlier work.

Values joined by “and” are separate entries in the source; they are usually repeats but may differ in a detail not shown here. Equal entries are not always repeated. Where two headings read alike, the source gives them in different places.

T1 sequence (P00533 25-1210): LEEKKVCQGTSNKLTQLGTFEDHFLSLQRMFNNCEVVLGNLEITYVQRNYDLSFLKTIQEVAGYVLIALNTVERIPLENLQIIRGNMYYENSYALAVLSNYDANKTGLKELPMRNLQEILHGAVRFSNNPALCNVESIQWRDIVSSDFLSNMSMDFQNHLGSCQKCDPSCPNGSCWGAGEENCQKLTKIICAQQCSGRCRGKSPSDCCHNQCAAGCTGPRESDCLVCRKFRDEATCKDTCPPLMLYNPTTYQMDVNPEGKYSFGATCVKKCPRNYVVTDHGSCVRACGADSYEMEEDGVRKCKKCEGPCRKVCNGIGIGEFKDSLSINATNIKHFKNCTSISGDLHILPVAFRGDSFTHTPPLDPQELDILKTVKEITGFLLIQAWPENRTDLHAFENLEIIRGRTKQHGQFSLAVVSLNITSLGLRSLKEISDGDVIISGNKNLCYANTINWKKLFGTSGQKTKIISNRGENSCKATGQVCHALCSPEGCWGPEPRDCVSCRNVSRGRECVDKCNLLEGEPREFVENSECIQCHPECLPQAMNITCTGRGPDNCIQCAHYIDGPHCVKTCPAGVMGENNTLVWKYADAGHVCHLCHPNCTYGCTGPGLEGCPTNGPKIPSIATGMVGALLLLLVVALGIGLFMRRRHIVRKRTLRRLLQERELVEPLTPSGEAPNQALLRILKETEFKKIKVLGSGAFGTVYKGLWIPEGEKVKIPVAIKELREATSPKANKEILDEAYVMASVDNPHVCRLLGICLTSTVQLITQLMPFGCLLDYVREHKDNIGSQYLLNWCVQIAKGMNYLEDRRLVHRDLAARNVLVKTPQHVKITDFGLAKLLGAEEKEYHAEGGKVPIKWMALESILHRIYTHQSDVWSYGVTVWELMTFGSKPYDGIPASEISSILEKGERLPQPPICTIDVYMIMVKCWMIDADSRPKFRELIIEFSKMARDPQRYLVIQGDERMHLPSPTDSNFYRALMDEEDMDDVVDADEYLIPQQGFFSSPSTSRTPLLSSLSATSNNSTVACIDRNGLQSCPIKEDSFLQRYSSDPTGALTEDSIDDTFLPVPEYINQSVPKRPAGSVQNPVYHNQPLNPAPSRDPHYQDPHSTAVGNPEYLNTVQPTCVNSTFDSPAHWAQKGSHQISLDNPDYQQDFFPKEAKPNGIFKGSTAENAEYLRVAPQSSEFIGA
T2 sequence (P04626 23-1255): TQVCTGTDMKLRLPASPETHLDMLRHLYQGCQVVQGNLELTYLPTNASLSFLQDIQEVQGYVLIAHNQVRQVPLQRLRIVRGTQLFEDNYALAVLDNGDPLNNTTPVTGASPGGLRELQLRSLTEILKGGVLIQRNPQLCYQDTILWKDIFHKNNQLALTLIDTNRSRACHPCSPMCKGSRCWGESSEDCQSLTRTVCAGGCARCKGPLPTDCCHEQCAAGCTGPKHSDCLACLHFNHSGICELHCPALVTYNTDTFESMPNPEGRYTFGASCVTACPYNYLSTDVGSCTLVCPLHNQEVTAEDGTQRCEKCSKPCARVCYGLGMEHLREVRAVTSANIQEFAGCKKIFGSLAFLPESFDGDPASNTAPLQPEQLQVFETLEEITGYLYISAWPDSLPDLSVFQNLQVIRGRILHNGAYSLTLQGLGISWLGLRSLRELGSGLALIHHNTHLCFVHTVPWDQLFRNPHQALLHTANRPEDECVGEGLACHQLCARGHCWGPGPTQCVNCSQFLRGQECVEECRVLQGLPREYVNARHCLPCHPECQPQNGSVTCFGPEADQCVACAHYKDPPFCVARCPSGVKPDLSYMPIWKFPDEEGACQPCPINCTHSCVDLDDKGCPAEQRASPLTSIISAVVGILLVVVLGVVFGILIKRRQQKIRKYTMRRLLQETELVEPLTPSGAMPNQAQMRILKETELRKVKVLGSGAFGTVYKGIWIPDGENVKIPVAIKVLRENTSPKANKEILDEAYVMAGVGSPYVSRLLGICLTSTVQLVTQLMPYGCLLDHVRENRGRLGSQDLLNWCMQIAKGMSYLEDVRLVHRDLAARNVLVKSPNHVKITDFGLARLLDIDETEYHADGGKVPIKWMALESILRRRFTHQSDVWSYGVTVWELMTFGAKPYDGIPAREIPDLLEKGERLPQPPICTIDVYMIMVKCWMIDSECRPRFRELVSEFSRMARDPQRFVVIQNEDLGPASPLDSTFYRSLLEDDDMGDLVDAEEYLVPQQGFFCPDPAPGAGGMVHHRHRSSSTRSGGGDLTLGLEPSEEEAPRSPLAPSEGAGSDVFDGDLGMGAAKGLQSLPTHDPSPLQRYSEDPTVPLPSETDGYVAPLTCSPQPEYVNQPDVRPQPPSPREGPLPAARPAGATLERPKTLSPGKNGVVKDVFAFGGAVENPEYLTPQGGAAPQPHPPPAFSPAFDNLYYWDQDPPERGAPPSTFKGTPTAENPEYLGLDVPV

As to `COc1ccc(C2CC(c3ccc(OC)c(OC)c3)=NN2c2nc(-c3ccccc3)cs2)cc1` (stereo not shown) [Compound 6e, 2-(3-(3,4-Dimethoxyphenyl)-5-(4-methoxyphenyl)-4,5-dihydro-1H-pyrazol-1-yl)-4-phenylthiazole], in the series on P53, the “Fold Change = 2^−ΔΔCT, P53” value was 4.85 ± 0.4 fold. In the series with Bcl-2, the “Fold Change = 2^−ΔΔCT, Bcl-2” value is 0.22 ± 0.06 fold. In addition, the “Fold Change = 2^−ΔΔCT, Casp-9” value in the series on Casp-9 was 8.19 fold and 8.19 ± 0.32 fold. The “Fold Change = 2^−ΔΔCT, Casp-8” value in the series with Casp-8 is 1.71 fold and 1.71 ± 0.18 fold. The “Fold Change = 2^−ΔΔCT, Casp-3” value in the series on Casp-3 is 7.12 fold and 7.12 ± 0.53 fold. Moreover, in the series on Bax, the “Fold Change = 2^−ΔΔCT, Bax” value is 6.39 fold and 6.39 ± 0.8 fold. At EGFR Kinase, the IC50 is 9 ± 1 nM. Also, the mice weight in series [1] (10 mg/kg BW, IP, MCF-7 control 32.28 g, normal 24.5 g) worked out at 28.23 g. For the same compound, the “histopathological examination of liver sections” value in series [1] (mouse, in vivo) is recorded as “normal nuclei morphology in most of the cells with slight hydrophobic degeneration”. In the series on MCF-7 cells [2] (control 34.18), the “percentage of cells in the S phase” value turned out to be 44.52%. In addition, in the series with MCF-7 cancer cells, the “LogIC50 MCF-7” value is reported as 0.862 and the IC50 stood at 7.21 ± 0.48 µM. Further, the IC50 in the series on MCF-7 cancer cells (Homo sapiens, MCF7, 48 h) stood at 7.28 µM. The tumor inhibition ratio in series [3] (seven administrations) is 52.46%. In [3] (decreased from 89.8), the tumor volume worked out at 28.4 mm^3. For the same compound, in the series on MCF-7 cells [4], the late apoptosis is recorded as 18.52%, the early apoptosis is listed as 9.47% and the “apoptotic cell death (total)” value is given as 27.99%. The IC50 in [5] is ≥ 50 µM.
In the case of `COc1ccc(C2=NN(c3nc(-c4ccc(F)cc4)cs3)C(c3ccc(Cl)cc3)C2)cc1OC` (stereo not shown) [Compound 6k, 2-(5-(4-Chlorophenyl)-3-(3,4-dimethoxyphenyl)-4,5-dihydro-1H-pyrazol-1-yl)-4-(4-fluorophenyl)thiazole], the “Fold Change = 2^−ΔΔCT, P53” value in the series with P53 was 3.91 fold and 3.91 ± 0.50 fold. In addition, in the series with Bcl-2, the “Fold Change = 2^−ΔΔCT, Bcl-2” value was 0.41 fold and 0.41 ± 0.09 fold. Also, the “Fold Change = 2^−ΔΔCT, Casp-9” value with Casp-9 is 6.07 fold and 6.07 ± 0.23 fold. For the same compound, the “Fold Change = 2^−ΔΔCT, Casp-8” value in the series on Casp-8 is 3.91 fold and 3.91 ± 0.42 fold. In addition, the “Fold Change = 2^−ΔΔCT, Casp-3” value in the series on Casp-3 was 5.79 fold and 5.79 ± 0.4 fold. Further, the “Fold Change = 2^−ΔΔCT, Bax” value in the series on Bax was 5.24 fold and 5.24 ± 0.4 fold. In addition, the concentration for half-maximal inhibition (IC50) on EGFR Kinase was 14 ± 1 nM; against HER2 Kinase, 27 ± 2 nM; with MCF-7 cancer cells (Homo sapiens, MCF7, 48 h), 8.02 µM; in the series on MCF-7 cancer cells, 8.02 ± 0.98 µM; in series [5] it was ≥ 50 µM. Moreover, in the series on MCF-7 cells [2] (printed 'reduced by', control 9.7%), the “percentage of cells in the G2/M phase” value is 2.01%. Besides, the “LogIC50 MCF-7” value in the series with MCF-7 cancer cells was 0.9042. The compound also yielded a late apoptosis with MCF-7 cells [4] of 14.38%. In the series on MCF-7 cells [4], this compound gave an early apoptosis of 8.06%. Besides, in the series on MCF-7 cells [4], the “apoptotic cell death (total)” value is 22.44%.
Turning to `O=C(Nc1nccs1)C(c1cc(F)ccc1O)N1Cc2ccccc2C1=O` (stereo not shown) [EAI045], the IC50 with mutant EGFR (L858R) was 19 nM.
As for `COc1ccc(-c2csc(NC(=O)CSc3nc(-c4ccc(OC)cc4)c(C#N)c(=O)[nH]3)n2)cc1` [VI], the IC50 in the series with EGFR was 190 nM.

These data come from article PMC9607164, “Rational Design, Synthesis and Biological Evaluation of Novel Pyrazoline-Based Antiproliferative Agents in MCF-7 Cancer Cells” (Pharmaceuticals, 2022).
